The target of one test is T1, human FPR1 (Homo sapiens, UniProt P21462).
T1 sequence (P21462 1-350): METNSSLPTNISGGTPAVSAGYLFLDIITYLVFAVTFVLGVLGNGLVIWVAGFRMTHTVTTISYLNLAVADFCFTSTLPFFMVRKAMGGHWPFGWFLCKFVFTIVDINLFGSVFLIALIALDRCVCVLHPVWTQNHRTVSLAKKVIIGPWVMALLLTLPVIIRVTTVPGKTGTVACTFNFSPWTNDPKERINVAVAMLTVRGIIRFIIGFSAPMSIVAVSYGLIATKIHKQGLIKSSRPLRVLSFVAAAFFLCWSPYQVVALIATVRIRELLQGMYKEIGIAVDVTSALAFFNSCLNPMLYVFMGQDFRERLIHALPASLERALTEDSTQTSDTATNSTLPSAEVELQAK
Briefly: FPR1 cyclic adenosine monophosphate (cAMP) assay. Particulars: CHO cells overexpressing human FPR1; forskolin 10 μM; inhibition of cAMP production; HTRF; read-out: hFPR1 cAMP2 EC50. The test is classed as cell-based. In a few lines:
(§1)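 Gi-coupled activity is read as suppression of forskolin-stimulated cAMP (10 μM final for FPR1, 5 μM final for FPR2; IBMX 200 μM final) in recombinant CHO cells, 30 min incubation at rt, HTRF detection.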
(In general: Changes in cAMP serve as a functional read-out for many G protein-coupled receptors.)

In another test the target is T2, human FPR2 (Homo sapiens, UniProt P25090).
T2 sequence (P25090 1-351): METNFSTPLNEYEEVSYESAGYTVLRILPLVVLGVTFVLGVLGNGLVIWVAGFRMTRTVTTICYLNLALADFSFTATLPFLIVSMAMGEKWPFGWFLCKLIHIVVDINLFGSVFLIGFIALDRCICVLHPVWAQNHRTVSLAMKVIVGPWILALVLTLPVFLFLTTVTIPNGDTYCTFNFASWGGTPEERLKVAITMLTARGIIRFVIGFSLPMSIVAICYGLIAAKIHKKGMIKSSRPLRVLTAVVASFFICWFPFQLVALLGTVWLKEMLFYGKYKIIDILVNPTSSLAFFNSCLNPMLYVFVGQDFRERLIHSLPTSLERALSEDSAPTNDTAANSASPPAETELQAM
As to the kind of experiment: FPR2 cyclic adenosine monophosphate (cAMP) assay. The test is classed as cell-based. As to conditions: CHO cells overexpressing human FPR2; forskolin 5 μM; inhibition of cAMP production; HTRF; read-out: hFPR2 cAMP2 EC50. In a few lines:
as §1

For the compound `COc1cc(F)c(-c2c(NC(=O)c3ccc(OC(F)(F)F)cc3)c(=O)n(-c3ccccc3Cl)n2C)c(F)c1` [Example 172, N-[2-(2-chlorophenyl)-5-(2,6-difluoro-4-methoxyphenyl)-1-methyl-3-oxo-2,3-dihydro-1H-pyrazol-4-yl]-4-(trifluoromethoxy)benzamide], the EC50 is 3300 nM on human FPR1 and 13 nM at human FPR2.

In the case of `COc1cc(F)c(-c2c(NC(=O)c3ccc(OC(F)F)cc3)c(=O)n(-c3ccccc3C#N)n2C)c(F)c1` [Example 173, N-[2-(2-cyanophenyl)-5-(2,6-difluoro-4-methoxyphenyl)-1-methyl-3-oxo-2,3-dihydro-1H-pyrazol-4-yl]-4-(difluoromethoxy)benzamide], the EC50 was more than 10000 nM on human FPR1 and 20 nM at human FPR2.

For the compound `COc1cc(F)c(-c2c(NC(=O)c3ccc(OC(F)(F)F)cc3)c(=O)n(-c3ccccc3C#N)n2C)c(F)c1` [Example 174, N-[2-(2-cyanophenyl)-5-(2,6-difluoro-4-methoxyphenyl)-1-methyl-3-oxo-2,3-dihydro-1H-pyrazol-4-yl]-4-(trifluoromethoxy)benzamide], the EC50 is more than 10000 nM on human FPR1 and 7 nM on human FPR2.

Regarding `COc1cc(F)c(-c2c(NC(=O)c3ccc(OC(F)F)cc3)c(=O)n(-c3cccc(F)c3Cl)n2C)c(F)c1` [Example 175, N-[2-(2-chloro-3-fluorophenyl)-5-(2,6-difluoro-4-methoxyphenyl)-1-methyl-3-oxo-2,3-dihydro-1H-pyrazol-4-yl]-4-(difluoromethoxy)benzamide], the EC50 is more than 10000 nM on human FPR1 and 25 nM at human FPR2.

For the compound `COc1cc(F)c(-c2c(NC(=O)c3ccc(OC(F)F)cc3)c(=O)n(-c3cc(Cl)ccc3Cl)n2C)c(F)c1` [Example 176, N-[2-(2,5-dichlorophenyl)-5-(2,6-difluoro-4-methoxyphenyl)-1-methyl-3-oxo-2,3-dihydro-1H-pyrazol-4-yl]-4-(difluoromethoxy)benzamide], the EC50 on human FPR1 was more than 10000 nM; on human FPR2, 9 nM.

Consider `COc1cc(F)c(-c2c(NC(=O)c3ccc(OC(F)F)cc3)c(=O)n(-c3cccc(OC(F)F)c3)n2C)c(F)c1` [Example 177, N-[5-(2,6-difluoro-4-methoxyphenyl)-2-[3-(difluoromethoxy)phenyl]-1-methyl-3-oxo-2,3-dihydro-1H-pyrazol-4-yl]-4-(difluoromethoxy)benzamide], for which the EC50 on human FPR1 and on human FPR2 was 3 nM each time.

For the compound `COc1cc(F)c(-c2c(NC(=O)c3ccc(OC(F)F)cc3)c(=O)n(-c3cccc(F)c3C#N)n2C)c(F)c1` [Example 178, N-[2-(2-cyano-3-fluorophenyl)-5-(2,6-difluoro-4-methoxyphenyl)-1-methyl-3-oxo-2,3-dihydro-1H-pyrazol-4-yl]-4-(difluoromethoxy)benzamide], the 50% effective concentration (EC50) was more than 10000 nM on human FPR1 and 6 nM at human FPR2.

With `COc1cc(F)c(-c2c(NC(=O)c3ccc(OC(F)F)cc3)c(=O)n(-c3cc(C#N)ccc3C#N)n2C)c(F)c1` [Example 179, N-[2-(2,5-dicyanophenyl)-5-(2,6-difluoro-4-methoxyphenyl)-1-methyl-3-oxo-2,3-dihydro-1H-pyrazol-4-yl]-4-(difluoromethoxy)benzamide], the values for the EC50 on human FPR1 and on human FPR2 were 300 nM and 23 nM, respectively.

On to `COc1cc(F)c(-c2c(NC(=O)c3ccc(OC(F)F)cc3)c(=O)n(-c3nccc(C)c3Cl)n2C)c(F)c1` [Example 180, N-[2-(3-chloro-4-methylpyridin-2-yl)-5-(2,6-difluoro-4-methoxyphenyl)-1-methyl-3-oxo-2,3-dihydro-1H-pyrazol-4-yl]-4-(difluoromethoxy)benzamide], for which the EC50 at human FPR1 is more than 10000 nM; at human FPR2, 8 nM.

As for `COc1cc(F)c(-c2c(NC(=O)c3ccc(OC(F)F)cc3)c(=O)n(-c3cccc(OC)c3Cl)n2C)c(F)c1` [Example 181, N-[2-(2-chloro-3-methoxyphenyl)-5-(2,6-difluoro-4-methoxyphenyl)-1-methyl-3-oxo-2,3-dihydro-1H-pyrazol-4-yl]-4-(difluoromethoxy)benzamide], the values for the EC50 on human FPR1 and on human FPR2 were 140 nM and 6 nM, respectively.

`COc1cc(F)c(-c2c(NC(=O)c3ccc(OC(F)F)cc3)c(=O)n(-c3nc(OC)ccc3Cl)n2C)c(F)c1` [Example 182, N-[2-(3-chloro-6-methoxypyridin-2-yl)-5-(2,6-difluoro-4-methoxyphenyl)-1-methyl-3-oxo-2,3-dihydro-1H-pyrazol-4-yl]-4-(difluoromethoxy)benzamide]: the concentration for a half-maximal effect (EC50) at human FPR1 was more than 10000 nM; at human FPR2, 12 nM.

Consider `COc1cc(F)c(-c2c(NC(=O)c3ccc(OC(F)F)cc3)c(=O)n(-c3cc(OC)ccc3C#N)n2C)c(F)c1` [Example 183, N-[2-(2-cyano-5-methoxyphenyl)-5-(2,6-difluoro-4-methoxyphenyl)-1-methyl-3-oxo-2,3-dihydro-1H-pyrazol-4-yl]-4-(difluoromethoxy)benzamide], for which the EC50 on human FPR1 turned out to be 3900 nM; at human FPR2, 11 nM.

Turning to `COc1cc(F)c(-c2c(NC(=O)c3ccc(OC(F)F)cc3)c(=O)n(-c3cccc(OC)c3C#N)n2C)c(F)c1` [Example 184, N-[2-(2-cyano-3-methoxyphenyl)-5-(2,6-difluoro-4-methoxyphenyl)-1-methyl-3-oxo-2,3-dihydro-1H-pyrazol-4-yl]-4-(difluoromethoxy)benzamide], the half-maximal effective concentration (EC50) on human FPR1 is more than 10000 nM; on human FPR2 it was 8 nM.

Regarding `COc1cc(F)c(-c2c(NC(=O)c3ccc(OC(F)F)cc3)c(=O)n(-c3nc(OC)ccc3C#N)n2C)c(F)c1` [Example 185, N-[2-(3-cyano-6-methoxypyridin-2-yl)-5-(2,6-difluoro-4-methoxyphenyl)-1-methyl-3-oxo-2,3-dihydro-1H-pyrazol-4-yl]-4-(difluoromethoxy)benzamide], the figures for the EC50 on human FPR1 and at human FPR2 were more than 10000 nM and 5 nM, respectively.

With `COc1cc(F)c(-c2c(NC(=O)c3ccc(OC(F)F)cc3)c(=O)n(-c3cc(F)ccc3Cl)n2C)c(F)c1` [Example 186, N-[2-(2-chloro-5-fluorophenyl)-5-(2,6-difluoro-4-methoxyphenyl)-1-methyl-3-oxo-2,3-dihydro-1H-pyrazol-4-yl]-4-(difluoromethoxy)benzamide], the EC50 at human FPR1 is more than 10000 nM; on human FPR2, 10 nM.

With `COc1cc(F)c(-c2c(NC(=O)c3ccc(OC(F)F)cc3)c(=O)n(-c3cccc(Cl)c3F)n2C)c(F)c1` [Example 187, N-[2-(3-chloro-2-fluorophenyl)-5-(2,6-difluoro-4-methoxyphenyl)-1-methyl-3-oxo-2,3-dihydro-1H-pyrazol-4-yl]-4-(difluoromethoxy)benzamide], the values for the EC50 on human FPR1 and at human FPR2 were 2200 nM and 4 nM, respectively.

Take `COc1cc(F)c(-c2c(NC(=O)c3ccc(OC(F)F)cc3)c(=O)n(-c3cc(F)ccc3C#N)n2C)c(F)c1` [Example 188, N-[2-(2-cyano-5-fluorophenyl)-5-(2,6-difluoro-4-methoxyphenyl)-1-methyl-3-oxo-2,3-dihydro-1H-pyrazol-4-yl]-4-(difluoromethoxy)benzamide]: the EC50 is more than 10000 nM at human FPR1 and 14 nM at human FPR2.

With `COc1cc(F)c(-c2c(NC(=O)c3ccc(OC(F)F)cc3)c(=O)n(-c3cccc(C#N)c3F)n2C)c(F)c1` [Example 189, N-[2-(3-cyano-2-fluorophenyl)-5-(2,6-difluoro-4-methoxyphenyl)-1-methyl-3-oxo-2,3-dihydro-1H-pyrazol-4-yl]-4-(difluoromethoxy)benzamide], the concentration giving a half-maximal response (EC50) at human FPR1 turned out to be 190 nM; at human FPR2 it was 5 nM.

A word on the EC50: it is the concentration at which the effect is half-maximal.

Values taken from US12577206B2 (BRISTOL-MYERS SQUIBB COMPANY, priority 2020, dated 2026).
